According to patent US11365227B2, “Peptide and pharmaceutical compositions of same for use as an antimicrobial and in cancer treatment” (UNIVERSITAT DE VALÈNCIA, priority 2017, dated 2022):
Where a SMILES comes first, the peptide text is derived from it.

System: S. aureus
Test: Scanning electron microscopy of S. aureus cells treated with peptides
Type: cell-based, Staphylococcus aureus subsp. aureus CECT 4013
Conditions: 25 μg/mL, 1 h
Procedure: The cells were prepared in the same way as for the flow cytometry technique and the same aliquots and treatments were performed. The samples were incubated at 37° C. for 1 h. The bacteria were fixed with Karnosky (2.5% paraformaldehyde and 0.5 glutaraldehyde) for 2 h at 4° C. After washing (centrifuging and eliminating the supernatant) they were fixed with 2% osmium tetraoxide for another 2 h, washed again and filtered with a 0.2 μm filter. The cells were then dehydrated in graded ethanol series (30°, 50°, 70°, 90°, 100°) for 10 min in each gradation. To carry out the critical point drying, the ethanol was replaced with liquid CO2, the temperature was increased to accelerate evaporation and the pressure was lowered slowly to conserve the exact shape of the bacteria. Finally, shading with gold palladium was performed for 2 min observing the results in the equipment FEG-SEM HITACHI S4800 at 10 Kv.
Scanning electron microscopy provides high-resolution images used to view the damage caused by the peptides to the bacterial membrane. The cells of S. aureus CECT 4013 were treated with the peptides hBD-3, TcDef3-pep and PaSK at a concentration of 25 μg/mL, for 1 h, and analysed using scanning electron microscopy (FIG. 4). In cells without treatment the circular and uniform form typical of S. aureus was observed, with the intact membrane, while in treated cells various types of morphological alterations can be seen. […] With this treatment small circular structures are observed, smaller than the cells of S. aureus.

## CC[C@H](C)[C@H](NC(=O)[C@H](CCCNC(=N)N)NC(=O)[C@H](CCCNC(=N)N)NC(=O)[C@H](CCCCN)NC(=O)[C@H](CC(N)=O)NC(=O)[C@H](CS)NC(=O)[C@H](Cc1ccc(O)cc1)NC(=O)CNC(=O)CNC(=O)[C@H](CCCNC(=N)N)NC(=O)[C@H](CCCCN)NC(=O)[C@H](CCCNC(=N)N)NC(=O)[C@H](CCCCN)NC(=O)[C@H](CC(C)C)NC(=O)[C@H](CC(C)C)NC(=O)[C@H](CS)NC(=O)[C@H](Cc1c[nH]cn1)NC(=O)[C@H](C)NC(=O)[C@H](C)NC(=O)[C@H](CS)NC(=O)[C@H](C)NC(=O)[C@H](C)NC(=O)[C@H](Cc1c[nH]cn1)NC(=O)[C@H](CC(N)=O)NC(=O)[C@@H](NC(=O)[C@@H](N)CCCCN)C(C)C)C(=O)N[C@@H](CS)C(=O)N[C@H](C(=O)N[C@@H](CS)C(=O)N[C@@H](CCCNC(=N)N)C(=O)N[C@@H](CC(N)=O)C(=O)O)C(C)C [PaSK] (H-KVNHAACAAHCLLKRKRGGYCNKRRICVCRN-OH; N-terminus and C-terminus assumed)
  biofilm formation, scanning electron microscopy: biofilm produced
  morphological alterations, scanning electron microscopy: complete cell disintegration
